Patent publication US11365263B2, “Bifunctional cytotoxic agents containing the CTI pharmacophore” (PFIZER INC., priority 2015, dated 2022)

Experiments:
Format in all cases: cell-based
HL60 (leukemia) = assay: Cytotoxicity assay for payloads (MTS), HL60; conditions: Homo sapiens, HL-60, 96 h, HL60 cells, four days incubation, read-out: Free payload potency (IC50), HL60
Description: (§1) Cancer cell lines were obtained from ATCC (Manassas, Va.). N87 (human gastric carcinoma derived from metastatic liver site). HL60 (leukemia) and MDA-MB-361 DYT2 (human breast carcinoma MDA-MB-361) were grown in RPMI 1640 media. All media were supplemented with 10% fetal bovine serum, 1% sodium pyruvate, and 1% L-glutamine (Invitrogen, Grand Island, N.Y.). Human umbilical vein endothelial cells (HUVEC) were obtained from Lonza (Allendale, N.J.) and maintained in EGM2 media supplemented with EGM-2 SingleQuots (Lonza #CC-4176). All cells were maintained in a humidified incubator (37° C., 5% CO2).
(§2) Cytotoxicity Assay Procedure for Payloads
(§3) Cells in 100 μl medium were cultured in a 96-well plate. Cancer cell lines treated with the indicated compounds by adding 50 μl of 3× stocks in duplicate at 10 concentrations. Cells were incubated with compounds for four days, then 30 μl of CellTiter® 96 AQueous One MTS Solution (Promega Cat #G3582) was added to the cells, incubated 1.5 hr at 37° C., then absorbance measured at 490 nm on a Victor plate reader (Perkin Elmer, Waltham, Mass.). Relative cell viability was determined as a percentage of untreated control wells. IC50 values were calculated using four parameter logistic model #203 with XLfit v4.2 (IDBS, Guildford, Surry, UK).

[1] = test system: N87 (human gastric carcinoma); assay: Cytotoxicity assay for payloads (MTS), N87; conditions: 96 h, N87 cells, four days incubation, read-out: Free payload potency (IC50), N87
Description: as §1, §2, §3

[2] = test system: MDA-MB-361 DYT2 (human breast carcinoma); assay: Cytotoxicity assay for payloads (MTS), MDA-MB-361 DYT2; conditions: 96 h, MDA-MB-361 DYT2 cells, four days incubation, read-out: Free payload potency (IC50), DYT2
Description: as §1, §2, §3

Structure (SMILES)	IC50 (HL60 (leukemia)) [nM]	IC50 [1] [nM]	IC50 [2] [nM]
[2H]C([2H])(CC([2H])([2H])C(=O)N1C[C@@H](CCl)c2c1cc(OC(C)=O)c1scc(C)c21)C(=O)N1C[C@@H](CCl)c2c1cc(OC(C)=O)c1scc(C)c21 [Compound 88]	0.41	0.041	0.004
CC(=O)Oc1cc2c(c3c(C)csc13)[C@H](CCl)CN2C(=O)C12C3C4C1C1C2C3C41C(=O)N1C[C@@H](CCl)c2c1cc(OC(C)=O)c1scc(C)c21 (stereo partly drawn) [Compound 60, pentacyclo[4.2.0.0^˜2,5^˜.0^˜3,8^˜.0^˜4,7^˜]octane-1,4-diylbis[carbonyl(8S)-8-(chloromethyl)-1-methyl-7,8-dihydro-6H-thieno[3,2-e]indole-6,4-diyl]diacetate]	0.009	0.122	0.079
[2H]C([2H])(C(=O)N1C[C@@H](CCl)c2c1cc(OC(C)=O)c1scc(C)c21)C([2H])([2H])C([2H])([2H])C(=O)N1C[C@@H](CCl)c2c1cc(OC(C)=O)c1scc(C)c21 [Compound 89]	0.302	0.041	0.002
[2H]C([2H])(CC(=O)N1C[C@@H](CCl)c2c1cc(OC(C)=O)c1scc(C)c21)CC(=O)N1C[C@@H](CCl)c2c1cc(OC(C)=O)c1scc(C)c21 [Compound 87]	0.349	0.036	0.002
